Experimental data as given in patent US20110166112A1, “METHOD FOR STIMULATING PLATELET PRODUCTION” (Eisai, Inc., priority 2009, published 2011).
Marks after values point to notes of the source that are not given here.

Test system: subjects with chronic ITP
Assay: Recurrence of thrombocytopenia upon discontinuation of E5501 (platelet count below 10,000/mm^3)
Format: in vivo, human
Details: for Recurrence of thrombocytopenia: Relation To E5501: assessed by the investigator
Description: Recurrence of Thrombocytopenia. Recurrence of thrombocytopenia has been previously reported and is of special interest in this population. Recurrence of thrombocytopenia was defined as a platelet count that decreased to below 10,000/mm^3 upon discontinuation of E5501. In this study, 9 subjects potentially met the criteria for recurrence of thrombocytopenia. Three were deemed serious; all 3 recovered.
All 9 cases occurred at an E5501 dose of 10 mg or above, and the majority (n=6/9) occurred within 2 weeks after discontinuation of E5501 (FIG. 3). However, recurrent thrombocytopenia was seen up to 4 weeks after the last dose of study drug.

## O=C(Nc1nc(-c2cc(Cl)cs2)c(N2CCN(C3CCCCC3)CC2)s1)c1cnc(N2CCC(C(=O)O)CC2)c(Cl)c1 [E5501, 1-(3-chloro-5-{[4-(4-chlorothiophen-2-yl)-5-(4-cyclohexylpiperazin-1-yl)thiazol-2-yl]carbamoyl}pyridine-2-yl)piperidine-4-carboxylic acid]
Subject A, 20-30 mg, 1st entry
  Recurrence of thrombocytopenia: Outcome: Recovered
  Recurrence of thrombocytopenia: Platelet Count: 3 K/mm^3
  Recurrence of thrombocytopenia: Serious: No
  Recurrence of thrombocytopenia: Study Days (No. Days Posttreatment): 193 (17) Days
  Recurrence of thrombocytopenia: Relation To E5501: Not related
Subject A, 20-30 mg, 2nd entry
  Recurrence of thrombocytopenia: Outcome: Recovered
  Recurrence of thrombocytopenia: Platelet Count: 6 K/mm^3
  Recurrence of thrombocytopenia: Serious: No
  Recurrence of thrombocytopenia: Study Days (No. Days Posttreatment): 235 (59) Days
  Recurrence of thrombocytopenia: Relation To E5501: Not related
Subject A, 20-30 mg, 3rd entry
  Recurrence of thrombocytopenia: Outcome: Recovered
  Recurrence of thrombocytopenia: Platelet Count: 4 K/mm^3
  Recurrence of thrombocytopenia: Serious: No
  Recurrence of thrombocytopenia: Study Days (No. Days Posttreatment): 249 (73) Days
  Recurrence of thrombocytopenia: Relation To E5501: Not related
Subject B, 10 mg
  Recurrence of thrombocytopenia: Platelet Count: 1 K/mm^3
  Recurrence of thrombocytopenia: Serious: No
  Recurrence of thrombocytopenia: Study Days (No. Days Posttreatment): 209 (28) Days
Subject C, 10-20 mg
  Recurrence of thrombocytopenia: Outcome: Recovered
  Recurrence of thrombocytopenia: Platelet Count: 6 K/mm^3
  Recurrence of thrombocytopenia: Serious: No
  Recurrence of thrombocytopenia: Study Days (No. Days Posttreatment): 182 (14) Days
  Recurrence of thrombocytopenia: Relation To E5501: Probably
Subject D, 20 mg
  Recurrence of thrombocytopenia: Outcome: Recovered
  Recurrence of thrombocytopenia: Platelet Count: 1 K/mm^3
  Recurrence of thrombocytopenia: Serious: Serious
  Recurrence of thrombocytopenia: Study Days (No. Days Posttreatment): 193 (10) Days
  Recurrence of thrombocytopenia: Relation To E5501: Not related
Subject E, 10 mg
  Recurrence of thrombocytopenia: Platelet Count: 8 K/mm^3
  Recurrence of thrombocytopenia: Serious: No
  Recurrence of thrombocytopenia: Study Days (No. Days Posttreatment): 209 (7) Days
Subject F, 20 mg
  Recurrence of thrombocytopenia: Outcome: Recovered
  Recurrence of thrombocytopenia: Platelet Count: 8 K/mm^3
  Recurrence of thrombocytopenia: Serious: Serious
  Recurrence of thrombocytopenia: Study Days (No. Days Posttreatment): 192 (11) Days
  Recurrence of thrombocytopenia: Relation To E5501: Not related
Subject G, 2.5-12.5 mg
  Recurrence of thrombocytopenia: Outcome: Recovered
  Recurrence of thrombocytopenia: Serious: Serious
  Recurrence of thrombocytopenia: Study Days (No. Days Posttreatment): 179 (13) Days
  Recurrence of thrombocytopenia: Relation To E5501: Probably
Subject G, 2.5-12.5 mg, recorded 3 days before the event
  Recurrence of thrombocytopenia: Platelet Count: 16^g K/mm^3
Subject H, 10-40 mg
  Recurrence of thrombocytopenia: Outcome: Recovered
  Recurrence of thrombocytopenia: Platelet Count: 4 K/mm^3
  Recurrence of thrombocytopenia: Serious: No
  Recurrence of thrombocytopenia: Study Days (No. Days Posttreatment): 143 (16) Days
  Recurrence of thrombocytopenia: Relation To E5501: Not related
Subject I, 10-20 mg, 1st entry
  Recurrence of thrombocytopenia: Outcome: Recovered
  Recurrence of thrombocytopenia: Platelet Count: 8 K/mm^3
  Recurrence of thrombocytopenia: Serious: No
  Recurrence of thrombocytopenia: Study Days (No. Days Posttreatment): 181 (13) Days
  Recurrence of thrombocytopenia: Relation To E5501: Not related
Subject I, 10-20 mg, 2nd entry
  Recurrence of thrombocytopenia: Outcome: Recovered
  Recurrence of thrombocytopenia: Platelet Count: 9 K/mm^3
  Recurrence of thrombocytopenia: Serious: No
  Recurrence of thrombocytopenia: Study Days (No. Days Posttreatment): 233 (65) Days
  Recurrence of thrombocytopenia: Relation To E5501: Not related
In vivo
  recurrences of thrombocytopenia deemed serious: Three
Of 9 cases
  recurrences of thrombocytopenia within 2 weeks after discontinuation of E5501: 6 n
Upon discontinuation, E5501 dose of 10 mg or above
  subjects who potentially met the criteria for recurrence of thrombocytopenia: 9 subjects
